Measurements taken from patent US20240270762A1, “PENICILLIN-BINDING PROTEIN INHIBITORS” (priority 2021, published 2024).
In brackets after ≈: the same amount, converted by molar mass. Like-named read-outs stand apart in the source and are kept apart here.

Legend:
[1] = test system: P. aeruginosa CDC-0054; assay: microbe, parasite or virus in culture; type: cell-based; conditions: Pseudomonas aeruginosa, CDC0054, read-out: Minimum inhibitory concentration, P. aeruginosa CDC-0054
[2] = test system: P. aeruginosa CDC-0090; assay: microbe, parasite or virus in culture; type: cell-based; conditions: Pseudomonas aeruginosa, CDC0090, read-out: Minimum inhibitory concentration, P. aeruginosa CDC-0090
[3] = test system: P. aeruginosa ATCC 35151; assay: microbe, parasite or virus in culture; type: cell-based; conditions: Pseudomonas aeruginosa, ATCC35151, read-out: Minimum inhibitory concentration, P. aeruginosa ATCC 35151
[4] = test system: B. humptydooensis ATCC BAA-2767; assay: microbe, parasite or virus in culture; type: cell-based; conditions: Burkholderia humptydooensis, ATCCBAA2767, read-out: Minimum inhibitory concentration (MIC), B. humptydooensis ATCC BAA-2767
[5] = biological target: T1, PBP3 from Pseudomonas aeruginosa (PAO1) (Pseudomonas aeruginosa, UniProt G3XD46); assay: Bocillin-FL fluorescence polarization competition binding, P. aeruginosa PBP3; conditions: Binding affinity to P. aeruginosa PBP3; fluorescence polarization competition binding assay using Bocillin-FL; read-out: P. aeruginosa PBP3 Potency
T1 construct: made in house
In short: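 Purified PBPs pre-incubated with inhibitor (E. coli PBP3 1.5 μM, 30 min; P. aeruginosa PBP3 0.75 μM, A. baumannii PBP1a 1 μM and PBP3 0.2 μM, 15 min), then Bocillin-FL 0.1 μM (0.05 μM for PBP1a) added; FP read up to 60 min. EC50 = concentration halving bound Bocillin-FL.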

[6] = test system: P. aeruginosa (ΔmexAB-oprM); assay: Broth microdilution MIC in iron-depleted CAMHB (IDM); type: cell-based; conditions: Pseudomonas aeruginosa, read-out: Minimum inhibitory concentration, P. aeruginosa ΔmexAB-oprM
[7] = test system: A. baumannii CDC-0036; assay: microbe, parasite or virus in culture; type: cell-based; conditions: Acinetobacter baumannii
[8] = test system: A. baumannii 1258916; assay: microbe, parasite or virus in culture; type: cell-based, Acinetobacter baumannii
[9] = test system: A. baumannii CDC-0033; assay: microbe, parasite or virus in culture; type: cell-based; conditions: Acinetobacter baumannii
[10] = test system: A. baumannii ATCC 17978; assay: microbe, parasite or virus in culture; type: cell-based; conditions: Acinetobacter baumannii
[11] = CDC0036, read-out: MIC, A. baumannii CDC-0036
[12] = Acinetobacter baumannii, 1258916, read-out: MIC, A. baumannii 1258916
[13] = CDC0033, read-out: MIC, A. baumannii CDC-0033
[14] = ATCC17978, read-out: MIC, A. baumannii ATCC 17978

T1 sequence (G3XD46 whole entry): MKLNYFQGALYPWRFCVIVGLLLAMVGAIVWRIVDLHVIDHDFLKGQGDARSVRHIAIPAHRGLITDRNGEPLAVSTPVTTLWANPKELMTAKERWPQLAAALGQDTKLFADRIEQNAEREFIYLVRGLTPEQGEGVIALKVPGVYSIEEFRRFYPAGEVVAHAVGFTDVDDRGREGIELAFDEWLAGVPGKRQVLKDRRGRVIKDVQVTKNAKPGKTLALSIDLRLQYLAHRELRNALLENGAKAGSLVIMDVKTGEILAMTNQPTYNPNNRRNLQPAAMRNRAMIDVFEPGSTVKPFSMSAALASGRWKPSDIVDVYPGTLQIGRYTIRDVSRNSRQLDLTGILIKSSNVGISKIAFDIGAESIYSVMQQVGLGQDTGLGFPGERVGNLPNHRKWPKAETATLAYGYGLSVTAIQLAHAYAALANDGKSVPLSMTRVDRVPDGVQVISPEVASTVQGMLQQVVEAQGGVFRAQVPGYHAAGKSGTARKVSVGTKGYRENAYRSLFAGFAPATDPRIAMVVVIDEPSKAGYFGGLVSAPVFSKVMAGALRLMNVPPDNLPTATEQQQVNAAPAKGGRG

Structure (SMILES) | MIC [1] | MIC [2] | MIC [3] | MIC [4] | IC50 [5] | MIC ([6]; iron-depleted CAMHB (IDM), […]) | MIC [7, 11] | MIC [8, 12] | MIC [9, 13] | MIC [10, 14] | MIC [6] | MIC ([7]; CDC0036, read-out: Minimum inhibitory concentration (MIC), A. baumannii CDC-0036) | MIC ([8]; Acinetobacter baumannii, 1258916, read-out: Minimum inhibitory concentration (MIC), A. baumannii 1258916) | MIC ([9]; CDC0033, read-out: Minimum inhibitory concentration (MIC), A. baumannii CDC-0033) | MIC ([10]; ATCC17978, read-out: Minimum inhibitory concentration (MIC), A. baumannii ATCC 17978)
O=C(O)c1c(F)ccc2c1OB(O)[C@@H](NC(=O)[C@H](NC(=O)N1CCN(Cc3ccc(O)c(O)c3Cl)C(=O)C1=O)c1ccc(P(=O)(O)O)cc1)C2 (single isomer, unassigned) [Example 160] | < 1 µg/mL | < 1 µg/mL | < 1 µg/mL | < 1 µg/mL | < 10 µM | < 1 µg/mL | < 1 µg/mL | < 1 µg/mL | < 1 µg/mL | < 1 µg/mL |  |  |  |  | 
O=C(O)c1c(F)ccc2c1OB(O)[C@@H](NC(=O)[C@H](NC(=O)N1CCN(Cc3ccc(O)c(O)c3Cl)C(=O)C1=O)c1cccc(P(=O)(O)O)c1)C2 (single isomer, unassigned) [Example 163] | < 1 µg/mL | 2 to 4 µg/mL (≈ 2.72 to 5.44 µM) | < 1 µg/mL | < 1 µg/mL | < 10 µM | < 1 µg/mL | < 1 µg/mL | < 1 µg/mL | < 1 µg/mL | < 1 µg/mL |  |  |  |  | 
O=C(NCCS(=O)(=O)N1CCN(C(=O)N[C@@H](C(=O)N[C@H]2Cc3ccc(F)c(C(=O)O)c3OB2O)c2ccc(P(=O)(O)O)cc2)C1=O)c1ccc(O)c(O)c1Cl (single isomer, unassigned) [Example 168] | 32 to 64 µg/mL (≈ 38.7 to 77.3 µM) | 32 to 64 µg/mL (≈ 38.7 to 77.3 µM) | 2 to 4 µg/mL (≈ 2.42 to 4.83 µM) | < 1 µg/mL | < 10 µM | 8 to 16 µg/mL (≈ 9.66 to 19.3 µM) | 2 to 4 µg/mL (≈ 2.42 to 4.83 µM) | 2 to 4 µg/mL (≈ 2.42 to 4.83 µM) | 32 to 64 µg/mL (≈ 38.7 to 77.3 µM) | < 1 µg/mL |  |  |  |  | 
O=C(NCCCS(=O)(=O)N1CCN(C(=O)N[C@H](C(=O)N[C@H]2Cc3ccc(F)c(C(=O)O)c3OB2O)c2ccc(P(=O)(O)O)cc2)C1=O)c1ccc(O)c(O)c1Cl (single isomer, unassigned) [Example 169] | > 128 µg/mL | > 128 µg/mL | > 128 µg/mL | > 128 µg/mL | > 250 µM | > 128 µg/mL | > 128 µg/mL | > 128 µg/mL | > 128 µg/mL | > 128 µg/mL |  |  |  |  | 
O=C(O)c1c(F)ccc2c1OB(O)[C@@H](NC(=O)[C@H](NC(=O)N1CCN(C3CCN(C(=O)Nc4ccc(O)cc4)CC3)C(=O)C1=O)c1cc(F)c(O)c(O)c1Cl)C2 (single isomer, unassigned) [Example 426] | < 1 µg/mL | < 1 µg/mL | < 1 µg/mL | < 1 µg/mL | < 10 µM | < 1 µg/mL | 8 to 16 µg/mL (≈ 9.99 to 20 µM) | 2 to 4 µg/mL (≈ 2.5 to 4.99 µM) | 2 to 4 µg/mL (≈ 2.5 to 4.99 µM) | < 1 µg/mL |  |  |  |  | 
O=C(O)c1c(F)ccc2c1OB(O)[C@@H](NC(=O)[C@H](NC(=O)N1CCN(C3CCN(C(=O)c4cccc(O)c4)CC3)C1=O)c1cc(F)c(O)c(O)c1Cl)C2 (single isomer, unassigned) [Example 430] | < 1 µg/mL | < 1 µg/mL | < 1 µg/mL | < 1 µg/mL | < 10 µM | < 1 µg/mL | 8 to 16 µg/mL (≈ 10.6 to 21.1 µM) | 8 to 16 µg/mL (≈ 10.6 to 21.1 µM) | 8 to 16 µg/mL (≈ 10.6 to 21.1 µM) | < 1 µg/mL |  |  |  |  | 
O=C(O)c1c(F)ccc2c1OB(O)[C@@H](NC(=O)[C@H](NC(=O)N1CCN(C3CCN(C(=O)c4cccc(O)c4F)CC3)C1=O)c1cc(F)c(O)c(O)c1Cl)C2 (single isomer, unassigned) [Example 431] | < 1 µg/mL | < 1 µg/mL | < 1 µg/mL | < 1 µg/mL | < 10 µM | < 1 µg/mL | < 1 µg/mL | < 1 µg/mL | < 1 µg/mL | < 1 µg/mL |  |  |  |  | 
O=C(O)c1c(F)ccc2c1OB(O)[C@@H](NC(=O)[C@H](NC(=O)N1CCN(C3CCN(C(=O)c4cccc(O)c4Cl)CC3)C1=O)c1cc(F)c(O)c(O)c1Cl)C2 (single isomer, unassigned) [Example 432] | < 1 µg/mL | < 1 µg/mL | < 1 µg/mL | < 1 µg/mL | < 10 µM | < 1 µg/mL | 2 to 4 µg/mL (≈ 2.52 to 5.05 µM) | < 1 µg/mL | 2 to 4 µg/mL (≈ 2.52 to 5.05 µM) | < 1 µg/mL |  |  |  |  | 
O=C(O)c1c(F)ccc2c1OB(O)[C@@H](NC(=O)[C@H](NC(=O)N1CCN(C3CCN(C(=O)c4cc(O)ccc4F)CC3)C1=O)c1cc(F)c(O)c(O)c1Cl)C2 (single isomer, unassigned) [Example 433] | < 1 µg/mL | < 1 µg/mL | < 1 µg/mL | < 1 µg/mL | < 10 µM | < 1 µg/mL | < 1 µg/mL | < 1 µg/mL | < 1 µg/mL | < 1 µg/mL |  |  |  |  | 
O=C(O)c1c(F)ccc2c1OB(O)[C@@H](NC(=O)[C@H](NC(=O)N1CCN(C3CCN(C(=O)c4cc(O)ccc4Cl)CC3)C1=O)c1cc(F)c(O)c(O)c1Cl)C2 (single isomer, unassigned) [Example 434] | < 1 µg/mL | < 1 µg/mL | < 1 µg/mL | < 1 µg/mL | < 10 µM | < 1 µg/mL | < 1 µg/mL | < 1 µg/mL | < 1 µg/mL | < 1 µg/mL |  |  |  |  | 
O=C(O)c1c(F)ccc2c1OB(O)[C@@H](NC(=O)[C@H](NC(=O)N1CCN(C3CCN(C(=O)c4ccc(F)c(O)c4)CC3)C1=O)c1cc(F)c(O)c(O)c1Cl)C2 (single isomer, unassigned) [Example 435] | < 1 µg/mL | < 1 µg/mL | < 1 µg/mL | < 1 µg/mL | < 10 µM | < 1 µg/mL | < 1 µg/mL | < 1 µg/mL | < 1 µg/mL | < 1 µg/mL |  |  |  |  | 
O=C(O)c1c(F)ccc2c1OB(O)[C@@H](NC(=O)[C@H](NC(=O)N1CCN(C3CCN(C(=O)c4cc(O)cc(F)c4)CC3)C1=O)c1cc(F)c(O)c(O)c1Cl)C2 (single isomer, unassigned) [Example 436] | < 1 µg/mL | < 1 µg/mL | < 1 µg/mL | < 1 µg/mL | < 10 µM | < 1 µg/mL | < 1 µg/mL | < 1 µg/mL | < 1 µg/mL | < 1 µg/mL |  |  |  |  | 
O=C(O)c1c(F)ccc2c1OB(O)[C@@H](NC(=O)[C@H](NC(=O)N1CCN(C3CCN(C(=O)c4ccc(F)c(O)c4F)CC3)C1=O)c1cc(F)c(O)c(O)c1Cl)C2 (single isomer, unassigned) [Example 437] | < 1 µg/mL | < 1 µg/mL | < 1 µg/mL | < 1 µg/mL | < 10 µM | < 1 µg/mL | < 1 µg/mL | < 1 µg/mL | < 1 µg/mL | < 1 µg/mL |  |  |  |  | 
O=C(O)c1c(F)ccc2c1OB(O)[C@@H](NC(=O)[C@@H](NC(=O)N1CCN(C3CCN(C(=O)c4ccc(O)cc4)CC3)C1=O)c1cc(F)c(O)c(O)c1Cl)C2 (single isomer, unassigned) [Example 462] | 8 to 16 µg/mL (≈ 10.6 to 21.1 µM) |  | < 1 µg/mL | > 128 µg/mL | 10 to 50 µM | 2 to 4 µg/mL (≈ 2.64 to 5.28 µM) | 32 to 64 µg/mL (≈ 42.2 to 84.4 µM) | 32 to 64 µg/mL (≈ 42.2 to 84.4 µM) | 32 to 64 µg/mL (≈ 42.2 to 84.4 µM) | < 1 µg/mL |  |  |  |  | 
O=C(O)c1c(F)ccc2c1OB(O)[C@@H](NC(=O)C(NC(=O)N1CCN(C3CCN(C(=O)Nc4ccc(F)c(O)c4F)CC3)C1=O)c1cc(F)c(O)c(O)c1Cl)C2 (stereo partly drawn) [Example 452, (3R)-3-(2-(2-chloro-5-fluoro-3,4-dihydroxyphenyl)-2-(3-(1-((2,4-difluoro-3-hydroxyphenyl)carbamoyl)piperidin-4-yl)-2-oxoimidazolidine-1-carboxamido)acetamido)-7-fluoro-2-hydroxy-3,4-dihydro-2H-benzo[e][1,2]oxaborinine-8-carboxylic acid] | < 1 µg/mL | < 1 µg/mL | < 1 µg/mL |  | < 10 µM | < 1 µg/mL | 2 to 4 µg/mL (≈ 2.47 to 4.95 µM) | < 1 µg/mL | 2 to 4 µg/mL (≈ 2.47 to 4.95 µM) | < 1 µg/mL |  |  |  |  | 
O=C(O)c1cccc2c1OB(O)[C@@H](NC(=O)[C@H](NC(=O)N1CCN(Cc3cc(F)c(O)c(O)c3Cl)C(=O)C1=O)c1ccc(P(=O)(O)O)cc1)C2 [Example 504, (R)-3-((R)-2-(4-(2-chloro-5-fluoro-3,4-dihydroxybenzyl)-2,3-dioxopiperazine-1-carboxamido)-2-(4-phosphonophenyl)acetamido)-2-hydroxy-3,4-dihydro-2H-benzo[e][1,2]oxaborinine-8-carboxylic acid] | < 1 µg/mL | < 1 µg/mL | < 1 µg/mL | < 1 µg/mL |  |  |  |  |  |  | < 1 µg/mL | < 1 µg/mL | < 1 µg/mL | < 1 µg/mL | < 1 µg/mL
